From patent publication US6630447B2, “Peptide inhibitors of LFA-1/ICAM-1 interaction” (University of New Mexico, priority 2000, dated 2003)
Read-outs that look alike come from different tables or passages of the source. Bridge positions count the residues as written; N and C are the ends. Peptide text beside a SMILES is read from it.

What was measured:
[1] = tested on: LFA-1/ICAM-1 mediated JY cell aggregation; assay type: cell-based; conditions: for Percent Inhibition: (1 − (Observed/Max) × 100); for Percent Inhibition / Percent JY Aggregation: (SD) in parentheses; for Inhibition of LFA-1/ICAM-1 mediated JY cell aggregation compared to SEQ ID NO: 1 (in words): substituted derivatives of the consensus peptide
Protocol: LFA-1 dependent cell aggregation has been previously studied using an aggregation assay it with a variety of leukocyte subclasses and cell lines (Larson et al., 1990; Wang et al., 1988; Larson et al., 1997). JY cells were obtained form American Type Tissue Culture Collection and were maintained in RPMI 1640 supplemented with 10% FBS at 37° C. in 5% CO2. Aggregation of cells was measured in a homotypic aggregation assay using ICAM-1 as a stimuli. JY cells were washed twice with serum free medium and resuspended at a concentration of 4×10^5 is cells/ml. Cells were preincubated with the desired concentration of peptide for 15 min at room temperature. In a final volume of 100 μl, 50 μl of cells and peptide were seeded in 96 well flat bottomed microtiter plates. Cells were allowed to aggregate at 37° C. in humidified air with 5% CO2. Cells were visualized and counted by inverted phase contrast microscopy at the time indicated. Within each well of aggregates as well as the total number of free (single) cells were counted. percent aggregation was determined by the following equation:
Percent aggregation=100×(1−number of free cells/total number of cells)
The consensus peptide (SEQ ID NO: 1) and the randomized sequence CLMIRMLRC (SEQ ID NO: 33), cyclizied in the disulfide-linked form, were synthesized by Biopeptide (San Diego, Calif.) and tested in a screening assay for the ability to inhibit aggregation of the cell line JY, which aggregates in an LFA-1/CAM-1 dependent manner. Aggregation measurements are relatively rapid and quantifiable. Furthermore, small volumes are used minimizing peptide consumption. Finally, cell aggregation in vitro depends on a multivalent LFA-1/ICAM-1 interaction. A peptide that is identified as being able to block cell aggregation in vitro is, therefore, likely to have affinity and off-rate characteristics that would make it an effective in vivo inhibitor, since cell—cell interaction in vivo also involves multivalent LFA-1/ICAM-1 interaction. Using this assay, the consensus peptide sequence has an IC50 of 500 μM (FIG. 1).
Peptides are initially tested for their ability to block LFA-1/ICAM dependent aggregation of the cell line JY (Wang et al., 1988; Larson et al., 1997). Peptides are preferably tested over a range of concentrations ([…], for example) and the concentration leading to half maximal inhibition of aggregation (IC50) is determined for all the peptide sequences.

[2] = tested on: neutrophil binding to stimulated endothelial cells; assay: Firm attachment of neutrophils to stimulated endothelial cells in a parallel plate flow chamber; assay type: cell-based, human; conditions: for Percent Inhibition of firm attachment of neutrophils: (1 − (Observed/Maximum)) × 100; for Percent Inhibition of firm attachment of neutrophils / Firmly attached neutrophils, Cells/mm^2: (SD) in parentheses; for Neutrophil-binding to endothelium (in words): physiologic flow conditions; for Firmly attached neutrophils, Cells/mm^2: physiologic flow
Description: An assay has been developed that provides an in vitro model of neutrophils or APL cells binding to activated endothelium. The binding of APL cells using a parallel plate flow chamber recapitulates events that occur in retinoic acid syndrome (Larson et al., 1997; Brown et al., 1999). A parallel plate flow chamber simulates the physiologic flow conditions in blood and adhesive interactions in post-capillary venules. Post-capillary venules are the physiologically relevant locations of leukemia cell-endothelial cell interaction and extravasation. […] Monolayers of endothelial cells are placed in the parallel plate flow chamber, and the leukemic cells are pumped through the chamber at physiologic flow rates. The interaction between the flowing leukemia cells and the endothelium are videotaped microscopically, and the number of rolling, firmly adhered and transmigrated leukemia cells is quantified by computer-assisted image analysis.
For investigating neutrophil binding, neutrophils are isolated from heparin anticoagulated venous blood of healthy adult donors by centrifugation on Ficoll-Hypaque density gradients as described by Simon et al. (1992). Isolated neutrophils are suspended at a concentration of 10^7/ml in Hanks' Balanced Salt Solution supplemented with 10 mmol/L HEPES, pH 7.4 and 0.2% human serum albumin (Armour Pharmaceutical, Kankakee, Ill.) and used within 2 hours of preparation. Neutrophils are kept on ice and resuspended in RPMi pre-warmed to 37° C. immediately before use.

[3] = Solubility of peptides in aqueous solution; assay type: physicochemical
Description: An alternative derivative peptide strategy was undertaken in which the consensus sequence peptide was subjected to an alanine-screening procedure as described by Cunningham and Wells, 1989. Peptides cyclizied in the disulfide-linked form were synthesized by Biopeptide (San Diego, Calif.) wherein an alanine was substituted at each position in the hepatapeptide LLRMRSI of the consensus sequence SEQ ID NO: 1, and each peptide was examined in parallel for its ability to inhibit LFA-1/ICAM-1 mediated JY cell aggregation. Six of the seven peptides were soluble in aqueous solution. SEQ ID NO: 376, representing a substitution of the arginine in position 4 of SEQ ID NO: 1, was not soluble at […] and could not be tested. […] The randomized sequence CLRLSRIMC (SEQ ID NO: 56) was used as a control.

[4] = Table 4, homologous amino acid substitutions
[5] = Table 3, alanine-substituted derivations

Molecule	Percent Inhibition ([1]; Table 4, JY cell aggregation)	Percent JY Aggregation [1, 4]	Percent Inhibition ([1]; Table 3, JY cell aggregation)	Percent JY Aggregation [1, 5]	Inhibition of LFA-1/ICAM-1 mediated JY cell aggregation compared to SEQ ID NO: 1 (in words) [1]	further results
CLVRMRSAC (OTHER INFORMATION: Description of Artificial Sequence:Synthetic) [SEQ ID NO: 41]	0(1) Percent	55(1) Percent	–	–	–	–
CALRMRSIC (OTHER INFORMATION: Description of Artificial Sequence:Synthetic) [SEQ ID NO: 34]	–	–	7(19) Percent	71(15) Percent	Loss of inhibitory function	–
CLLRMKSAC (OTHER INFORMATION: Description of Artificial Sequence:Synthetic) [SEQ ID NO: 46]	90(4) Percent	6(2) Percent	–	–	greater inhibition	Percent Inhibition of firm attachment of neutrophils [2]: 66(0) Percent; Inhibition of attachment of neutrophils to activated endothelium compared to SEQ ID NO: 1 (in words) ([2]; parallel plate flow chamber): greater inhibition; Neutrophil-binding to endothelium (in words) ([2]; parallel plate flow chamber): block; Firmly attached neutrophils, Cells/mm^2 [2]: 283(0) Cells/mm^2
CVLRMRSAC (OTHER INFORMATION: Description of Artificial Sequence:Synthetic) [SEQ ID NO: 42]	56(6) Percent	24(3) Percent	–	–	–	–
CLLRMRSLC (OTHER INFORMATION: Description of Artificial Sequence:Synthetic) [SEQ ID NO: 47]	−12(13) Percent	61(7) Percent	–	–	–	–
CC[C@H](C)[C@@H]1NC(=O)[C@H](CO)NC(=O)[C@H](CCCNC(=N)N)NC(=O)[C@H](CCSC)NC(=O)[C@H](CCCNC(=N)N)NC(=O)[C@H](CC(C)C)NC(=O)[C@H](CC(C)C)NC(=O)[C@@H](N)CSSC[C@@H](C(=O)O)NC1=O [SEQ ID NO: 1, CLLRMRSIC] (H-CLLRMRSIC-OH; disulfide 1-9)	45(9) Percent	30(5) Percent	46(11) Percent	41(8) Percent	–	Percent Inhibition of firm attachment of neutrophils [2]: 47(15) Percent; Neutrophil-binding to endothelium (in words) ([2]; parallel plate flow chamber): block; Firmly attached neutrophils, Cells/mm^2 [2]: 439(120) Cells/mm^2; Aggregation of JY cells (FIG. 1, in words) ([1]; titration of 100 μM to 1 mM): inhibited
CC[C@H](C)[C@@H]1NC(=O)[C@H](CCCNC(=N)N)NC(=O)[C@H](CO)NC(=O)[C@H](CC(C)C)NC(=O)[C@H](CCCNC(=N)N)NC(=O)[C@H](CC(C)C)NC(=O)[C@@H](N)CSSC[C@@H](C(=O)O)NC(=O)[C@H](CCSC)NC1=O [SEQ ID NO: 56, CLRLSRIMC, reference compound] (H-CLRLSRIMC-OH; disulfide 1-9 (inferred))	–	–	–	–	–	Aqueous solubility relative to randomized sequence SEQ ID NO: 33 [3]: greater aqueous solubility
CLARMRSIC (OTHER INFORMATION: Description of Artificial Sequence:Synthetic) [SEQ ID NO: 35]	–	–	9(22) Percent	69(17) Percent	Loss of inhibitory function	–
CLLRMRSVC (OTHER INFORMATION: Description of Artificial Sequence:Synthetic) [SEQ ID NO: 48]	92(3) Percent	4(1) Percent	–	–	greater inhibition	–
CLLRARSIC (OTHER INFORMATION: Description of Artificial Sequence:Synthetic) [SEQ ID NO: 37]	–	–	5(14) Percent	72(11) Percent	Loss of inhibitory function	–
CLLRMRAIC (OTHER INFORMATION: Description of Artificial Sequence:Synthetic) [SEQ ID NO: 39]	–	–	27(21) Percent	56(16) Percent	no significant effect	–
CLLRMRSAC (OTHER INFORMATION: Description of Artificial Sequence:Synthetic) [SEQ ID NO: 40]	–	–	61(17) Percent	29(13) Percent	more potent antagonist	–
CILRMRSAC (OTHER INFORMATION: Description of Artificial Sequence:Synthetic) [SEQ ID NO: 43]	92(9) Percent	4(5) Percent	–	–	greater inhibition	–
CLLRMASIC (OTHER INFORMATION: Description of Artificial Sequence:Synthetic) [SEQ ID NO: 38]	–	–	11(12) Percent	68(9) Percent	Loss of inhibitory function	–
CLMIRMLRC (OTHER INFORMATION: Description of Artificial Sequence:Synthetic) [SEQ ID NO: 33, reference compound]	–	–	–	–	–	Aggregation of JY cells (FIG. 1, in words) ([1]; concentration of 1 mM): ineffective
CLIRMRSAC (OTHER INFORMATION: Description of Artificial Sequence:Synthetic) [SEQ ID NO: 44]	93(3) Percent	4(2) Percent	–	–	greater inhibition	–
CLLKMRSAC (OTHER INFORMATION: Description of Artificial Sequence:Synthetic) [SEQ ID NO: 45]	94(3) Percent	3(2) Percent	–	–	greater inhibition	–
CC[C@H](C)[C@@H]1NC(=O)[C@H](CO)NC(=O)[C@H](CCCNC(=N)N)NC(=O)[C@H](CCSC)NC(=O)[C@H](C)NC(=O)[C@H](CC(C)C)NC(=O)[C@H](CC(C)C)NC(=O)[C@@H](N)CSSC[C@@H](C(=O)O)NC1=O [SEQ ID NO: 36, CLLAMRSIC] (H-CLLAMRSIC-OH; disulfide 1-9)	–	–	–	–	Loss of inhibitory function	Solubility in aqueous solution ([3]; at 1 nm): Not Soluble
